Values quoted from earlier work in patent US20050171000A1, “Three dimensional coordinates of melanocortin-4 receptors” (The Procter & Gamble Company, priority 2003, published 2005).

Target: T1, MC4-R (Rattus norvegicus, UniProt P70596)
T1 construct: host or cells: living rats, intraventricular administration (endogenous receptor)
Settings: intraventricular administration

T1 sequence (P70596 whole entry): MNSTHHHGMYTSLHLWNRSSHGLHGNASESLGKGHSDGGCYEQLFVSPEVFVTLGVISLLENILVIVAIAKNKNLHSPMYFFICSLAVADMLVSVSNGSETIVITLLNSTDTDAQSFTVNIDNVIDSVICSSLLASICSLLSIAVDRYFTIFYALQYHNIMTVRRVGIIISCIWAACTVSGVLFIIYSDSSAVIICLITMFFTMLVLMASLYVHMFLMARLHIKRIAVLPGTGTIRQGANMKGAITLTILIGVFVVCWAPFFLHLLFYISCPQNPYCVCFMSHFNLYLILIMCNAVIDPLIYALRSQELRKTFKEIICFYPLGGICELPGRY

For MTII, the food intake is given as “reduced”.
